In article PMC12449377, “Psychedelic-like effects induced by 2,5-dimethoxy-4-iodoamphetamine, lysergic acid diethylamide, and psilocybin in male and female C57BL/6J mice” (Psychopharmacology, 2025):
Where two headings read alike, the source gives them in different places.

Experiments:
[1] = system: C57BL/6J mice; assay: Body temperature change in mice; assay type: in vivo, mouse; settings: post 30 min session
Description: All mice were injected s.c. with temperature transponders (14 × 2 mm, model IPTT-300, Avidity Science, Waterford Wisconsin, USA) under brief isoflurane immobilization, and were given at least 1 week to recover (Glatfelter et al. [2022b]). Mice were single housed post-implant, and for the duration of the experiments, to protect their devices from being removed by cage mates. Temperature was measured noninvasively using a handheld reader which is sensitive to the transponder signals.
(§1) At 1–2 weeks prior to the beginning of experiments, mice were habituated to handling and receiving s.c. saline injections. On the day of an experiment, mice were acclimated to the testing room in their home cage for at least 30 min prior to the start of sessions. Prior to each session, mice were weighed, and resting body temperatures were recorded. Mice were then placed into experimental chambers for acclimation. Behavioral testing was carried out in TruScan mouse locomotor arenas equipped with photobeam arrays (Coulbourn Instruments, Holliston, MA, USA) that were modified with cylindrical inserts and transparent flooring to aid in semi-automated HTR detection as previously described (Glatfelter et al. [2022a]). After 5 min of acclimation, basal body temperature was recorded followed by s.c. injection of drug or vehicle, and mice were returned to test chambers for 30 min. Dose ranges for each drug were 0.03–10 mg/kg for DOI, 0.03–10 mg/kg for psilocybin, and 0.003–1 mg/kg for LSD. Mice were randomly assigned to specific doses at the beginning of the experiment and received different doses at each session.
(§2) During each session, locomotor activity was quantified via photobeam tracking of distance traveled in cm. Overhead GoPro Hero Black 7 video recordings (120 fps, 960p resolution) were analyzed using a commercially available software package from Clever Sys Inc. (Reston, VA, USA) for the measurement of HTR activity. Mouse body temperature was also collected post-session to calculate temperature change values (basal - post session temperature reading).
(§3) Concentration-response data were fit to a single site non-linear regression model. For the HTR studies, potencies were determined from the ascending limb of the dose-response curves using ED50 potency values from [agonist] vs. response (variable slope, four parameter) least squares fit non-linear regression analyses, whereas efficacy was defined by the top output parameter or Emax from the aforementioned analyses. […] Best-fit values for ED50 and Emax from non-linear regression analyses were compared by extra sum-of-squares F tests. Mean effects for each behavioral endpoint were compared using two-way ANOVA (dose x sex), followed by Sidak’s multiple comparisons post-hoc test. Mean effects for pooled mouse behavioral data were compared via Welch’s ANOVA with Dunnett’s T3 post-hoc test, comparing all doses to saline vehicle controls (0 mg/kg). Alpha was set to 0.05 for all analyses.

[2] = system: C57BL/6J mice; assay: Locomotor activity (distance traveled) in mice; assay type: in vivo, mouse; settings: for Locomotor Activity (cm) Mean: 30 min
Description: as §1, §2, §3

[3] = system: C57BL/6J mice; assay: Head twitch response (HTR) in mice; assay type: in vivo, mouse; settings: for HTR (total events) Mean: 30 min; for ED50: Mus musculus, sc; for HTR ♀ Emax (95% CI) / HTR ♂ Emax (95% CI): top of regression fit
Description: Each drug was tested using groups of 12 mice per sex (i.e., 24 total mice per drug). Experimental sessions were conducted once every 1–2 weeks for 2 months per drug. Experimental sessions were spaced apart by at least 1 week to minimize the potential for tolerance to drug effects (Canal and Morgan [2012]; Darmani et al. [1990a]; de la Fuente Revenga et al. [2022]). Experiments were conducted during the light phase (1300–1700 local time; lights on = 0700 in a 12/12 light/dark cycle).
as §1, §2, §3

[4] = system: C57BL/6J mice; settings: range over Table 1 and earlier studies; ref Glatfelter et al. [2022b], Sherwood et al. [2020]; cited from earlier work

CN(C)CCc1c[nH]c2cccc(OP(=O)(O)O)c12 [Psilocybin, 4-phosphoryloxy-N,N-dimethyltryptamine]
Body Temp Δ (°C) Mean ([1]; 0.03 mg/kg s.c., female mice): 0.2 °C | Body Temp Δ (°C) Mean ([1]; 0.03 mg/kg s.c., male mice): -0.4 °C | Body Temp Δ (°C) Mean ([1]; 0.03 mg/kg s.c., pooled sexes): -0.1 °C | Body Temp Δ (°C) Mean ([1]; 0.1 mg/kg s.c., female mice): 0.1 °C | Body Temp Δ (°C) Mean ([1]; 0.1 mg/kg s.c., male mice): 0.3 °C | Body Temp Δ (°C) Mean ([1]; 0.1 mg/kg s.c., pooled sexes): 0.2 °C | Body Temp Δ (°C) Mean ([1]; 0.3 mg/kg s.c., female mice): 0.04 °C | Body Temp Δ (°C) Mean ([1]; 0.3 mg/kg s.c., male mice): 0.1 °C | Body Temp Δ (°C) Mean ([1]; 0.3 mg/kg s.c., pooled sexes): 0.1 °C | Body Temp Δ (°C) Mean ([1]; 1 mg/kg s.c., female mice): 0.0 °C | Body Temp Δ (°C) Mean ([1]; 1 mg/kg s.c., male mice): -1.0 °C | Body Temp Δ (°C) Mean ([1]; 1 mg/kg s.c., pooled sexes): -0.4 °C | Body Temp Δ (°C) Mean ([1]; 3 mg/kg s.c., female mice): -1.0 °C | Body Temp Δ (°C) Mean ([1]; 3 mg/kg s.c., male mice): -1.3 °C | Body Temp Δ (°C) Mean ([1]; 3 mg/kg s.c., pooled sexes): -1.2 °C | Body Temp Δ (°C) Mean ([1]; 10 mg/kg s.c., female mice): -3.3 °C | Body Temp Δ (°C) Mean ([1]; 10 mg/kg s.c., male mice): -4.1 °C | Body Temp Δ (°C) Mean ([1]; 10 mg/kg s.c., pooled sexes): -3.7 °C | Locomotor Activity (cm) Mean ([2]; 0.03 mg/kg s.c., female mice): 2480.4 cm | Locomotor Activity (cm) Mean ([2]; 0.03 mg/kg s.c., male mice): 2063.8 cm | Locomotor Activity (cm) Mean ([2]; 0.03 mg/kg s.c., pooled sexes): 2272 cm | Locomotor Activity (cm) Mean ([2]; 0.1 mg/kg s.c., female mice): 2686.5 cm | Locomotor Activity (cm) Mean ([2]; 0.1 mg/kg s.c., male mice): 2877.2 cm | Locomotor Activity (cm) Mean ([2]; 0.1 mg/kg s.c., pooled sexes): 2782 cm | Locomotor Activity (cm) Mean ([2]; 0.3 mg/kg s.c., female mice): 3293.8 cm | Locomotor Activity (cm) Mean ([2]; 0.3 mg/kg s.c., male mice): 3064.5 cm | Locomotor Activity (cm) Mean ([2]; 0.3 mg/kg s.c., pooled sexes): 3179 cm | Locomotor Activity (cm) Mean ([2]; 1 mg/kg s.c., female mice): 2900.9 cm | Locomotor Activity (cm) Mean ([2]; 1 mg/kg s.c., male mice): 3532.9 cm | Locomotor Activity (cm) Mean ([2]; 1 mg/kg s.c., pooled sexes): 3188 cm | Locomotor Activity (cm) Mean ([2]; 3 mg/kg s.c., female mice): 2041.8 cm | Locomotor Activity (cm) Mean ([2]; 3 mg/kg s.c., male mice): 2018.9 cm | Locomotor Activity (cm) Mean ([2]; 3 mg/kg s.c., pooled sexes): 2029 cm | Locomotor activity effect ([2]; 10 mg/kg s.c.): decreased locomotor activity | Locomotor Activity (cm) Mean ([2]; 10 mg/kg s.c., female mice): 962.1 cm | Locomotor Activity (cm) Mean ([2]; 10 mg/kg s.c., male mice): 741.5 cm | Locomotor Activity (cm) Mean ([2]; 10 mg/kg s.c., pooled sexes): 851.8 cm | Locomotor activity effect ([2]; 0.3–1 mg/kg s.c.): mild increases in locomotor activity | HTR (total events) Mean ([3]; 0.03 mg/kg s.c., female mice): 8.0 total events | HTR (total events) Mean ([3]; 0.03 mg/kg s.c., male mice): 7.6 total events | HTR (total events) Mean ([3]; 0.03 mg/kg s.c., pooled sexes): 7.8 total events | HTR (total events) Mean ([3]; 0.1 mg/kg s.c., female mice): 11.8 total events | HTR (total events) Mean ([3]; 0.1 mg/kg s.c., male mice): 13.0 total events | HTR (total events) Mean ([3]; 0.1 mg/kg s.c., pooled sexes): 12.4 total events | HTR (total events) Mean ([3]; 0.3 mg/kg s.c., female mice): 27.3 total events | HTR (total events) Mean ([3]; 0.3 mg/kg s.c., male mice): 26.8 total events | HTR (total events) Mean ([3]; 0.3 mg/kg s.c., pooled sexes): 27.1 total events | HTR (total events) Mean ([3]; 1 mg/kg s.c., female mice): 30.2 total events | HTR (total events) Mean ([3]; 1 mg/kg s.c., male mice): 39.2 total events | HTR (total events) Mean ([3]; 1 mg/kg s.c., pooled sexes): 34.7 total events | HTR (total events) Mean ([3]; 3 mg/kg s.c., female mice): 47.2 total events | HTR (total events) Mean ([3]; 3 mg/kg s.c., male mice): 29.4 total events | HTR (total events) Mean ([3]; 3 mg/kg s.c., pooled sexes): 38.3 total events | HTR (total events) Mean ([3]; 10 mg/kg s.c., female mice): 21.8 total events | HTR (total events) Mean ([3]; 10 mg/kg s.c., male mice): 18.7 total events | HTR (total events) Mean ([3]; 10 mg/kg s.c., pooled sexes): 20.3 total events | ED50 ([3]; female mice, ascending limb of dose-response curve, read-out: HTR ♀ ED50 (95% CI)): 0.31 mg/kg | ED50 ([3]; male mice, ascending limb of dose-response curve, read-out: HTR ♂ ED50 (95% CI)): 0.17 mg/kg | ED50 ([3]; pooled male and female mice, read-out: HTR ♂+♀ ED50 (95% CI)): 0.22 mg/kg | Duration of HTR effect in the session ([3]; peak/active doses, 30 min session): trended to baseline levels by the end of the testing session | Time of peak effects on HTR post drug administration ([3]; s.c., both sexes, 30 min session): 5 to 10 min | HTR ♀ Emax (95% CI) ([3]; s.c., female mice): 43 (35–54) HTR events | HTR ♀ Emax (95% CI) ([3]; s.c., female mice, listed as psilocybin): 43 HTR events | HTR ♂ Emax (95% CI) ([3]; s.c., male mice): 35 (30–40) HTR events | HTR ♂ Emax (95% CI) ([3]; s.c., male mice, listed as psilocybin): 35 HTR events | HTR ♂+♀ Emax (95% CI) ([3]; s.c., pooled male and female mice): 38 (33–47) HTR events | ED50 doses inducing HTR in C57BL/6J mice [4]: 0.22 to 0.40 mg/kg
